In US10556907B2 (AbbVie Inc., priority 2015, dated 2020):

Key:
Test in all cases: Method 1: intracellular Ca2+ release (FLIPR, Calcium 5) in recombinant CHO-K1 cells
Assay type in all cases: cell-based
human S1PR5 receptor = biological target: T1, human S1PR5 receptor (Homo sapiens, UniProt Q9H228); conditions: agonist potency, determined with method 1 (symbols A-D); read-out: S1P5 EC50 range
T1 construct: host or cells: CHO-K1
Procedure, shortened: (§1)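 For antagonist mode, compounds were pre-incubated 10 min before phospho-fingolimod at EC80; in agonist mode, compounds were added directly to Calcium 5-loaded CHO-K1 cells co-expressing Gq/i5. Fluorescence was measured on FLIPR, and EC50 was fitted relative to the phospho-fingolimod curve.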

human S1PR3 receptor = biological target: T2, human S1PR3 receptor (Homo sapiens, UniProt Q99500); conditions: (1): determined with method 1; read-out: S1P3 EC50
T2 construct: host or cells: CHO-K1
Procedure, shortened: as §1

human S1PR1 receptor = biological target: T3, human S1PR1 receptor (Homo sapiens, UniProt P21453); conditions: (1): determined with method 1; read-out: S1P1 EC50
T3 construct: host or cells: CHO-K1
Procedure, shortened: as §1

human S1PR4 receptor = biological target: T4, human S1PR4 receptor (Homo sapiens, UniProt O95977); conditions: (1): determined with method 1; read-out: S1P4 EC50
T4 construct: host or cells: CHO-K1
T4 sequence (O95977 1-384): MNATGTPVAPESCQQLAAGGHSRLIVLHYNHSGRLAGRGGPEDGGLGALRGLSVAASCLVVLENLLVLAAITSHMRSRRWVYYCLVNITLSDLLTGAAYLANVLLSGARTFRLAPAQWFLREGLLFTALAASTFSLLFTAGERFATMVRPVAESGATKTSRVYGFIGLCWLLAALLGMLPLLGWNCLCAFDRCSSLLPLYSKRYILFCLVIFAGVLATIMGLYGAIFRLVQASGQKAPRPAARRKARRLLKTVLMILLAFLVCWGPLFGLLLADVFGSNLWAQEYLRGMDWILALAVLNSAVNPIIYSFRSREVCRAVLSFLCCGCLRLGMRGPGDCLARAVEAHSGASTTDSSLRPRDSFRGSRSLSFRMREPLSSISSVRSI
Procedure, shortened: as §1

T3 sequence (P21453 whole entry): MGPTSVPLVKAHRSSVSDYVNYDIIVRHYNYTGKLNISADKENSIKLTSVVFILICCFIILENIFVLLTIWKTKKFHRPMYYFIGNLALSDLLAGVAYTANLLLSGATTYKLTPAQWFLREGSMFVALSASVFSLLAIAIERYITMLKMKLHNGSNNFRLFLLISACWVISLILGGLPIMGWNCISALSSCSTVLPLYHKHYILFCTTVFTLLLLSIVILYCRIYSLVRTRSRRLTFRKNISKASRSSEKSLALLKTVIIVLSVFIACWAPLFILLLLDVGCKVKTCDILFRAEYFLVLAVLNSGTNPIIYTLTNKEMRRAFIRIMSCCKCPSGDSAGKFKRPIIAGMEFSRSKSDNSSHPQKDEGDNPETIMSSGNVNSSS
T2 sequence (Q99500 whole entry): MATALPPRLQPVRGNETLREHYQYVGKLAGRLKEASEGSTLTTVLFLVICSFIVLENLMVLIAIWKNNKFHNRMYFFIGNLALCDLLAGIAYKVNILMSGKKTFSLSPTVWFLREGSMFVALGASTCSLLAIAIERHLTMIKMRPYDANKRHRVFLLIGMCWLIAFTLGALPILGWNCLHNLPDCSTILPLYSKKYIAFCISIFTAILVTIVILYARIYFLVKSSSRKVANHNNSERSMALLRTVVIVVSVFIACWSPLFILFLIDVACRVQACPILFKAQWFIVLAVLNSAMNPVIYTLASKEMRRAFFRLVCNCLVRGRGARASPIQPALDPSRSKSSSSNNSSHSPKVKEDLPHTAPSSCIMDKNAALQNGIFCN
T1 sequence (Q9H228 whole entry): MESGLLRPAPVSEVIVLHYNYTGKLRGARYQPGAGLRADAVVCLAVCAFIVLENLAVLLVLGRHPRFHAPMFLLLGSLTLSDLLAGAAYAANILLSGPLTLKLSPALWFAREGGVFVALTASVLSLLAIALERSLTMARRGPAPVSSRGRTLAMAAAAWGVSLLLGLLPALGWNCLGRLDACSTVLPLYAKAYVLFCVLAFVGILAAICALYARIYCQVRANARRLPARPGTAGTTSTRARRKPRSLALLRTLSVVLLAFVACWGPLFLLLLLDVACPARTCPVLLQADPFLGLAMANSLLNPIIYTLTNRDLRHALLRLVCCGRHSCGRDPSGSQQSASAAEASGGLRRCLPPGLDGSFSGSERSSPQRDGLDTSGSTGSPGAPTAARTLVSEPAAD

Structure (SMILES) | EC50 (human S1PR5 receptor) | EC50 (human S1PR3 receptor) | EC50 (human S1PR1 receptor) | EC50 (human S1PR4 receptor)
O=C(O)C1CC(N2CCc3nc(C#Cc4cccc(Cl)c4)ncc3C2)C1 (centres unmarked) [Compound 62, 3-(2-((3-chlorophenyl)ethynyl)-7,8-dihydropyrido[4,3-d]pyrimidin-6(5H)-yl)cyclobutanecarboxylic acid] | 1000 to 10000 nM | > 1000 nM | > 1000 nM | > 1000 nM
CC(CCC(=O)O)N1CCc2nc(-c3ccc(OCc4ccccc4)cc3)ncc2C1 (centres unmarked) [Compound 64, 4-(2-(4-(benzyloxy)phenyl)-7,8-dihydropyrido[4,3-d]pyrimidin-6(5H)-yl)pentanoic acid] | < 10 nM | > 1000 nM | > 1000 nM | > 1000 nM
CC(CCC(=O)O)N1CCc2nc(-c3ccc(OCc4cccc(Cl)c4)cc3)ncc2C1 (centres unmarked) [Compound 65, 4-(2-(4-((3-chlorobenzyl)oxy)phenyl)-7,8-dihydropyrido[4,3-d]pyrimidin-6(5H)-yl)pentanoic acid] | 10 to 100 nM | > 1000 nM | > 1000 nM | > 1000 nM
CC(CCC(=O)O)N1CCc2nc(-c3ccc(OCc4ccc(Cl)cc4)cc3)ncc2C1 (centres unmarked) [Compound 66, 4-(2-(4-((4-chlorobenzyl)oxy)phenyl)-7,8-dihydropyrido[4,3-d]pyrimidin-6(5H)-yl)pentanoic acid] | < 10 nM | > 1000 nM | > 1000 nM | > 1000 nM
O=C(O)CCN1CCc2nc(-c3ccc(OCc4cccc(OC(F)(F)F)c4)cc3)ncc2C1 [Compound 82, 3-(2-(4-((3-(trifluoromethoxy)benzyl)oxy)phenyl)-7,8-dihydropyrido[4,3-d]pyrimidin-6(5H)-yl)propanoic acid] | < 10 nM | > 1000 nM | > 1000 nM | > 1000 nM
CCc1cccc(Cl)c1COc1ncc2c(n1)CCN(CCC(=O)O)C2 [Compound 96, 3-(2-((2-chloro-6-ethylbenzyl)oxy)-7,8-dihydropyrido[4,3-d]pyrimidin-6(5H)-yl)propanoic acid] | 1000 to 10000 nM | > 1000 nM | > 1000 nM | > 1000 nM
Cc1cc(-c2ccc3c(n2)CCN(CCCC(=O)O)C3)ccc1OCc1ccccc1 [Compound 114, 4-(2-(4-(benzyloxy)-3-methylphenyl)-7,8-dihydro-1,6-naphthyridin-6(5H)-yl)butanoic acid] | < 10 nM | > 1000 nM | > 1000 nM | > 1000 nM
O=C(O)C1CC(N2CCc3nc(C#Cc4ccc(Cl)cc4)ccc3C2)C1 (centres unmarked) [Compound 120, 3-(2-((4-chlorophenyl)ethynyl)-7,8-dihydro-1,6-naphthyridin-6(5H)-yl)cyclobutanecarboxylic acid] | 1000 to 10000 nM | > 1000 nM | > 1000 nM | > 1000 nM
CCOc1ccc(C#Cc2ccc3c(n2)CCN(C2CC(C(=O)O)C2)C3)cc1 (centres unmarked) [Compound 122, 3-(2-((4-ethoxyphenyl)ethynyl)-7,8-dihydro-1,6-naphthyridin-6(5H)-yl)cyclobutanecarboxylic acid] | 1000 to 10000 nM | > 1000 nM | > 1000 nM | > 1000 nM
O=C(O)C1CC(N2CCc3nc(C#Cc4ccccc4Cl)ccc3C2)C1 (centres unmarked) [Compound 126, 3-(2-((2-chlorophenyl)ethynyl)-7,8-dihydro-1,6-naphthyridin-6(5H)-yl)cyclobutanecarboxylic acid] | 1000 to 10000 nM | > 1000 nM | > 1000 nM | > 1000 nM
O=C(O)C1CC(N2CCc3nc(C#Cc4cc(F)cc(F)c4)ccc3C2)C1 (centres unmarked) [Compound 127, 3-(2-((3,5-difluorophenyl)ethynyl)-7,8-dihydro-1,6-naphthyridin-6(5H)-yl)cyclobutanecarboxylic acid] | 1000 to 10000 nM | > 1000 nM | > 1000 nM | > 1000 nM
O=C(O)C1CC(N2CCc3nc(C#Cc4cccc(Cl)c4)ccc3C2)C1 (centres unmarked) [Compound 128, 3-(2-((3-chlorophenyl)ethynyl)-7,8-dihydro-1,6-naphthyridin-6(5H)-yl)cyclobutanecarboxylic acid] | 1000 to 10000 nM | > 1000 nM | > 1000 nM | > 1000 nM
O=C(O)CCN1CCc2nc(-c3ccc(OCc4cccc(F)c4)cc3)ccc2C1 [Compound 133, 3-(2-(4-((3-fluorobenzyl)oxy)phenyl)-7,8-dihydro-1,6-naphthyridin-6(5H)-yl)propanoic acid] | < 10 nM | > 1000 nM | > 1000 nM | > 1000 nM

More lines, now with the values ahead:

EC50 (human S1PR5 receptor) | EC50 (human S1PR3 receptor) | EC50 (human S1PR1 receptor) | EC50 (human S1PR4 receptor) | Structure (SMILES)
1000 to 10000 nM | > 1000 nM | > 1000 nM | > 1000 nM | O=C(O)C1CC(N2CCc3nc(C#Cc4cc(F)cc(F)c4)ncc3C2)C1 (centres unmarked) [Compound 61, 3-(2-((3,5-difluorophenyl)ethynyl)-7,8-dihydropyrido[4,3-d]pyrimidin-6(5H)-yl)cyclobutanecarboxylic acid]
< 10 nM | > 1000 nM | > 1000 nM | > 1000 nM | O=C(O)CCN1CCc2nc(-c3ccc(OCc4ccc(Cl)cc4)cc3)ncc2C1 [Compound 74, 3-(2-(4-((4-chlorobenzyl)oxy)phenyl)-7,8-dihydropyrido[4,3-d]pyrimidin-6(5H)-yl)propanoic acid]
< 10 nM | > 1000 nM | > 1000 nM | > 1000 nM | O=C(O)CCN1CCc2nc(-c3ccc(OCc4ccc(OC(F)F)cc4)cc3)ncc2C1 [Compound 83, 3-(2-(4-((4-(difluoromethoxy)benzyl)oxy)phenyl)-7,8-dihydropyrido[4,3-d]pyrimidin-6(5H)-yl)propanoic acid]
< 10 nM | > 1000 nM | > 1000 nM | > 1000 nM | O=C(O)CCN1CCc2nc(-c3ccc(OCc4ccc(OC(F)(F)F)cc4)cc3)ncc2C1 [Compound 85, 3-(2-(4-((4-(trifluoromethoxy)benzyl)oxy)phenyl)-7,8-dihydropyrido[4,3-d]pyrimidin-6(5H)-yl)propanoic acid]
10 to 100 nM | > 1000 nM | > 1000 nM | > 1000 nM | CC(C)(C)c1ccc(COc2ccc(-c3ncc4c(n3)CCN(CCC(=O)O)C4)cc2)cc1 [Compound 87, 3-(2-(4-((4-(tert-butyl)benzyl)oxy)phenyl)-7,8-dihydropyrido[4,3-d]pyrimidin-6(5H)-yl)propanoic acid]
< 10 nM | > 1000 nM | > 1000 nM | > 1000 nM | Cc1ccc(C(F)(F)F)cc1COc1ccc(-c2ncc3c(n2)CCN(CCC(=O)O)C3)cc1 [Compound 88, 3-(2-(4-((2-methyl-5-(trifluoromethyl)benzyl)oxy)phenyl)-7,8-dihydropyrido[4,3-d]pyrimidin-6(5H)-yl)propanoic acid]
< 10 nM | > 1000 nM | > 1000 nM | > 1000 nM | Cc1ccc(COc2ccc(-c3ncc4c(n3)CCN(CCC(=O)O)C4)cc2)cc1C(F)(F)F [Compound 89, 3-(2-(4-((4-methyl-3-(trifluoromethyl)benzyl)oxy)phenyl)-7,8-dihydropyrido[4,3-d]pyrimidin-6(5H)-yl)propanoic acid]
< 10 nM | > 1000 nM | > 1000 nM | > 1000 nM | CCc1cccc(Cl)c1COc1ccc2c(n1)CCN(C1CC(C(=O)O)C1)C2 (centres unmarked) [Compound 118, 3-(2-((2-chloro-6-ethylbenzyl)oxy)-7,8-dihydro-1,6-naphthyridin-6(5H)-yl)cyclobutanecarboxylic acid]
1000 to 10000 nM | > 1000 nM | > 1000 nM | > 1000 nM | O=C(O)C1CC(N2CCc3nc(C#Cc4ccccc4)ccc3C2)C1 (centres unmarked) [Compound 119, 3-(2-(phenylethynyl)-7,8-dihydro-1,6-naphthyridin-6(5H)-yl)cyclobutanecarboxylic acid]
1000 to 10000 nM | > 1000 nM | > 1000 nM | > 1000 nM | Cc1ccccc1C#Cc1ccc2c(n1)CCN(C1CC(C(=O)O)C1)C2 (centres unmarked) [Compound 121, 3-(2-(o-tolylethynyl)-7,8-dihydro-1,6-naphthyridin-6(5H)-yl)cyclobutanecarboxylic acid]
1000 to 10000 nM | > 1000 nM | > 1000 nM | > 1000 nM | O=C(O)C1CC(N2CCc3nc(C#Cc4ccc(F)cc4)ccc3C2)C1 (centres unmarked) [Compound 123, 3-(2-((4-fluorophenyl)ethynyl)-7,8-dihydro-1,6-naphthyridin-6(5H)-yl)cyclobutanecarboxylic acid]
1000 to 10000 nM | > 1000 nM | > 1000 nM | > 1000 nM | CC(C)c1ccc(C#Cc2ccc3c(n2)CCN(C2CC(C(=O)O)C2)C3)cc1 (centres unmarked) [Compound 124, 3-(2-((4-isopropylphenyl)ethynyl)-7,8-dihydro-1,6-naphthyridin-6(5H)-yl)cyclobutanecarboxylic acid]
100 to 1000 nM | > 1000 nM | > 1000 nM | > 1000 nM | O=C(O)C1CC(N2CCc3nc(C#Cc4ccc(OCc5ccccc5)cc4)ccc3C2)C1 (centres unmarked) [Compound 125, 3-(2-((4-(benzyloxy)phenyl)ethynyl)-7,8-dihydro-1,6-naphthyridin-6(5H)-yl)cyclobutanecarboxylic acid]
